Where a SMILES comes first, the peptide text is derived from it. The star is where a group is joined. Cbz = O=C(OCc1ccccc1)*
Experiments:
[1] = target: SDS-activated 20S proteasome from rabbit muscle (Oryctolagus cuniculus, UniProt G1SU71+G1T4Q9); test: Kinetic assay: inhibition of the 20S proteasome; assay type: biochemical
Procedure: (§1) P, AA^1, AA^2, AA^3, and Z^1 and Z^2 represent the structures present on formula (1) or (2). The protocol for the kinetic assay described in Tables II-V is as described in Rock et al., Cell 78:761-771 (1994). In these tables, Ki values are reported, which are dissociation constants for the equilibrium that is established when enzyme and inhibitor interact to form the enzyme:inhibitor complex. The reactions were performed using SDS-activated 20S proteasome from rabbit muscle. The substrate used was Suc-LLVY-AMC.

NF-κB = test: Activation of NF-κB, electrophoretic mobility shift assay in TNF-α stimulated MG63 osteosarcoma cells; assay type: cell-based; conditions: pretreatment for 1 hour, PRDII probe, FIG. 2
Procedure: Compounds can be tested for their ability to inhibit the activation of NF-κB by means of a DNA binding assay (Palombella, et al., Cell 78:773 (1994)). Whole-cell extracts are prepared from untreated or TNF-α treated cells that have been pretreated for 1 hour with the test compound. The DNA binding activity of NF-κB is measured by an electrophoretic mobility shift assay using the PRDII probe from the human IFN-β gene promoter.
This assay was performed as previously described (Palombella, et al. Cell, 78:773-785 (1994)). MG63 osteosarcoma cells were stimulated by treatment with TNF-α for the designated times. Whole cell extracts were prepared and analyzed by electrophoretic mobility shift assay using the PRDII probe from the human IFN-β gene promoter.

Cathepsin B = Cathepsin B (Homo sapiens, UniProt P07858); test: Kinetic assay: inhibition of Cathepsin B; assay type: biochemical; conditions: Table IV
Excerpt: [Worded in the source for another target; this target is reported under the same test.] as §1, with “Table II summarizes results from kinetic experiments that measured the inhibition of the 20S proteasome by compounds having the formula of compound (1) or (2). P,” for “P,”

C2C12 cells = test: Inhibition of protein degradation in C2C12 cells; assay type: cell-based, mouse; conditions: 35S-methionine labelled cells, percent decrease in TCA soluble radioactivity, media with 50% serum
Procedure: One approach to testing drug candidates for their ability to inhibit the ATP-ubiquitin-dependent degradative process is to measure proteolysis in cultured cells (Rock, et al., Cell 78:761 (1994)). For example, the degradation of long-lived intracellular proteins can be measured in mouse C2C12 myoblast cells. Cells are incubated with ^35S-methionine for 48 hours to label long-lived proteins and then chased for 2 hours with medium containing unlabeled methionine. After the chase period, the cells are incubated for 4 hours in the presence or absence of the test compound. The amount of protein degradation in the cell can be measured by quantitating the trichloroacetic acid soluble radioactivity released from the pre-labeled proteins into the growth medium (an indicator of intracellular proteolysis).
C2C12 cells (a mouse myoblast line) were labelled for 48 hrs with ^35S-methionine. The cells were then washed and preincubated for 2 hrs in the same media supplemented with 2 mM unlabelled methionine. The media was removed and replaced with a fresh aliquot of the preincubation media containing 50% serum, and a concentration of the compound to be tested. The media was then removed and made up to 10% TCA and centrifuged. The TCA soluble radioactivity was counted. Inhibition of proteolysis was calculated as the percent decrease in TCA soluble radioactivity.

Human Leukocyte Elastase = target: T1, Human Leukocyte Elastase (Homo sapiens, UniProt P08246); test: Kinetic assay: inhibition of Human Leukocyte Elastase; assay type: biochemical; conditions: Table V
T1 sequence (P08246 30-267): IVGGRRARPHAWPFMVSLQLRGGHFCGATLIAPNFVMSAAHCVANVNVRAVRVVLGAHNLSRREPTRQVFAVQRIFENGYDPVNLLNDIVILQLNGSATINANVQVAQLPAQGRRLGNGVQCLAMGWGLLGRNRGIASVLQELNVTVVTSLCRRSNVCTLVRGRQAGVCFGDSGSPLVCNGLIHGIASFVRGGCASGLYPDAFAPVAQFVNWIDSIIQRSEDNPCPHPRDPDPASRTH

Cathepsin G = target: T2, Cathepsin G (Homo sapiens, UniProt P08311); test: Kinetic assay: inhibition of Cathepsin G; assay type: biochemical; conditions: Table V
T2 sequence (P08311 21-244): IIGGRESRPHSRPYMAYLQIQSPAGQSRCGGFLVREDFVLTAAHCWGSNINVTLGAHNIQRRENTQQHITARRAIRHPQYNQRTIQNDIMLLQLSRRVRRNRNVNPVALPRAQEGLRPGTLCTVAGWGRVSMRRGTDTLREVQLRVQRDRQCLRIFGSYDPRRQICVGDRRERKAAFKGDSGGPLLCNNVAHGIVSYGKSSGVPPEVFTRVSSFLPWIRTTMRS

mice = test: DTH response (contact sensitivity, ear swelling) in mice; assay type: in vivo, mouse; conditions: oral, ear swelling approximately 18 hours after challenge
Excerpt: Compounds can also be tested for their ability to inhibit a delayed-type hypersensitivity response in mice. Contact hypersensitivity is a manifestation of an in vivo T-cell mediated immune response (Friedmann, Curr. Opinion Immunology, 1:690693 (1989)). Although the exact molecular mechanisms that regulate the cellular interactions and vascular changes involved in the response remain obscure, it is clear that the process is dependent upon the interplay of soluble mediators, adhesion molecules, and the cytokine network (Piguet, et al., J. Exp. Med. 173:673-679 (1991); Nickoloff, et al. J. Invest. Dermatol. 94:151S-157S (1990)). NF-κB, by mediating events such as the production of cytokines and the induction and utilization of cell-surface adhesion molecules, is a central and coordinating regulator involved in immune responses.
Naive nice were sensitized by the application of 20 μL of a 0.5% (v/v) solution of 2,4-dinitrofluorobenzene in 4:1 acetone/olive oil to both of the rear limb footpads. This procedure is performed on two consecutive days, which are referred to as days 0 and 1.
The efferent phase of the contact sensitivity response was elicited on day 5 by the application of 10 μL of a 0.2% (v/v) solution of 2,4-dinitrofluorobenzene in 4:1 acetone/olive oil to both sides of the left ear. The contralateral control ear was treated on both sides with 10 μL of vehicle only. The mice were lightly anaesthetized for this procedure by the intraperitoneal (i.p.) injection of a mixture of ketamine.(80 mg/kg, Henry Schein) and xylazine (16 mg/kg, Henry Schein). […]
Approximately 18 hours after the challenge, ear swelling was determined by measuring both the control and the experimental ear using a Mitutoyo Digital micrometer. The absolute difference in thickness of the experimental (left) ears vs. the control (right) ears was determined for each treatment group. Efficacy was determined by comparing this difference in thickness to the difference calculated for the vehicle control group.

[2] = Table II, SDS-activated 20S proteasome from rabbit muscle, substrate Suc-LLVY-AMC

Row | Compound | Ki [1, 2] | IC50 (C2C12 cells; Mus musculus, C2C12) | IC50 (C2C12 cells) | other results
1 | CSCCC(C=O)NC(=O)C(CC(C)C)NC(=O)C(CC(C)C)NC(C)=O [MG-102, Ac-L-Leu-L-Leu-L-Met-H, reference compound] (Ac-Leu-Leu-Met-aldehyde; configuration not given here) | – | – | – | activity against the 20S proteasome [1]: inactive; NF-κB binding activity (NF-κB): did not inhibit
2 | CC(C)C[C@@H](C=O)NC(=O)[C@H](CC(C)C)NC(=O)[C@H](CC(C)C)NC(=O)OCc1ccccc1 [MG-132, Cbz-L-Leu-L-Leu-L-Leu-H] (Cbz-Leu-Leu-Leu-aldehyde) | – | – | – | NF-κB binding activity (NF-κB): inhibited
3 | CC(=O)N[C@@H](CC(C)C)C(=O)N[C@@H](CC(C)C)C(=O)N[C@H](C=O)CC(C)C [MG-154, reference compound] (Ac-Leu-Leu-Leu-aldehyde) | – | – | – | Ki ([1]; Table IV): 66 nM; Ki (Cathepsin B): 5 nM
4 | CC(C)CC(C=O)NC(=O)C(CC(C)C)NC(=O)C(Cc1c[nH]c2ccccc12)NC(=O)OCc1ccccc1 (stereo not drawn) [MG-191, reference compound] (Cbz-Trp-Leu-Leu-aldehyde; configuration not given here) | – | – | – | Ki ([1]; Table IV): 0.38 nM; Ki (Cathepsin B): 0.54 nM
5 | CC(C)C[C@H](NC(=O)[C@H](Cc1cccc2ccccc12)NC(=O)N1CCOCC1)B(O)O [MG-273, N-(4-Morpholine)carbonyl-β-(1-naphthyl)-L-alanine-L-leucine Boronic Acid] | 0.18 nM | 140 nM | – | Ki ([1]; Table IV): 0.18 nM; Ki (Cathepsin B): 200000 nM
6 | CC(C)C[C@H](NC(=O)[C@H](Cc1cccc2ccccc12)NS(=O)(=O)c1cccc2cccnc12)B(O)O [MG-296, N-(8-quinoline)sulfonyl-β-(1-naphthyl)-L-alanine-L-leucine boronic acid] | 1.7 nM | 738 nM | – | Ki ([1]; Table IV): 1.7 nM; Ki ([1]; Table V): 1.7 nM; Ki (Cathepsin B): 4000 nM; Ki (Human Leukocyte Elastase): 36 nM; Ki (Cathepsin G): 9200 nM; % Inhibition of the DTH response (mice; dose 50 mg/kg): 60%
7 | CC(C)C[C@H](NC(=O)[C@H](Cc1ccccc1)NC(=O)N1CCOCC1)B(O)O [MG-309, N-(4-morpholine)carbonyl-L-phenylalanine-L-leucine boronic acid] | 0.82 nM | 210 nM | – | Ki ([1]; Table IV): 0.82 nM; Ki ([1]; Table V): 0.82 nM; Ki (Cathepsin B): 132000 nM; Ki (Human Leukocyte Elastase): 7000 nM; Ki (Cathepsin G): 4800 nM; % Inhibition of the DTH response (mice; dose 3 mg/kg): 40%
8 | CC(C)C[C@H](NC(=O)[C@@H]1CCCN1)B(O)O [MG-319] | 20 nM | 14000 nM | – | –
9 | O=C(NC(Cc1ccccc1)B(O)O)C(Cc1cccc2ccccc12)NC(=O)N1CCOCC1 (centres unmarked) [MG-321] | 0.32 nM | – | 2400 nM | –
10 | CC(C)CC(NC(=O)C(CCc1ccccc1)NC(=O)N1CCOCC1)B(O)O (centres unmarked) [MG-322] | 2.2 nM | – | 380 nM | –
11 | CC(C)C[C@H](NC(=O)[C@H](CCc1ccccc1)NC(=O)c1ccc2ccccc2n1)B(O)O [MG-325, N-(2quinoline)carbonyl-L-homophenylalanine-L-leucine boronic acid] | 2.8 nM | 1100 nM | – | –
12 | CC(C)C[C@H](NC(=O)[C@H](Cc1cccc2ccccc12)NC(=O)c1ccccc1)B(O)O [MG-328] | 0.088 nM | – | 69 nM | –
13 | CC(C)C[C@H](NC(=O)[C@H](Cc1cccc2ccccc12)NC(=O)C1CCCCC1)B(O)O [MG-329] | 0.03 nM | – | 48 nM | –
14 | CN[C@@H](Cc1cccc2ccccc12)C(=O)N[C@@H](CC(C)C)B(O)O [MG-333] | 2.1 nM | 220 nM | – | –
15 | CC(C)C[C@H](NC(=O)[C@H](Cc1ccccc1)NC(=O)c1cccnc1)B(O)O [MG-336, N-(3-pyridine)carbonyl-L-phenylalanine-L-leucine boronic acid] | 0.25 nM | 100 nM | – | –
16 | CC(C)C[C@H](NC(=O)[C@H](Cc1ccccc1)NC(=O)c1cnccn1)B(O)O [MG-341, N-(2-pyrazine)carbonyl-L-phenylalanine-L-leucine boronic acid] | – | 69 nM | – | Ki (Cathepsin B): 160000 nM; % Inhibition of the DTH response (mice; dose 3 mg/kg): 90%
17 | CC(C)C[C@H](NC(=O)[C@H](Cc1ccccc1)NC(=O)c1ccccn1)B(O)O [MG-343] | 0.42 nM | – | 57 nM | –
18 | CC(C)C[C@H](NC(=O)[C@H](Cc1ccccn1)NC(=O)c1ccccc1)B(O)O [MG-345] | 0.76 nM | – | 120 nM | –
19 | CC(C)C[C@H](NC(=O)[C@H](Cc1ccccn1)NC(=O)C1CCCCC1)B(O)O [MG-346] | 1.1 nM | – | 150 nM | –
20 | CC(C)C[C@H](NC(=O)[C@H](Cc1ccccn1)NS(=O)(=O)c1cccc2cccnc12)B(O)O [MG-347] | 29 nM | – | 13000 nM | –
21 | CC(C)C[C@H](NC(=O)[C@H](Cc1ccccc1)NC(=O)NCc1ccccc1)B(O)O [MG-350] | 0.14 nM | – | 160 nM | –
22 | CC(C)C[C@H](NC(=O)[C@@H](N)Cc1ccccn1)B(O)O [MG-351] | 32 nM | – | 8100 nM | –
23 | N-Cbz-L-Leucine-L-leucine Boronic Acid [MG-274] | 3 nM | – | 340 nM | Ki ([1]; Table III, dipeptide boronic acid vs dipeptide aldehyde): 3 nM
24 | β-(1-Naphthyl)-L-alanine-L-leucine Boronic Acid Hydrochloride Salt [MG-302] | 7.5 nM | – | 270 nM | –
25 | β-(1-Naphthyl)-L-alanine-L-leucine Boronic Acid [MG-303] | 3.9 nM | – | 340 nM | –
